The record followed here is US20250154686A1, “COMPOUND LIBRARY” (CHUGAI SEIYAKU KABUSHIKI KAISHA, priority 2021, published 2025).

In this assay the target is T1, Bcl-2 protein (Recombinant Human Bcl-2 Protein) (Homo sapiens, UniProt P10415).
T1 construct: purchased Novus Biologicals NBP2-34889
Briefly: AS-MS evaluation of binding of the Example 4 mixture library (1200 compounds/well) to Bcl-2, ASMS ratio (%). The procedure, abridged: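 Binding is read as an ASMS ratio from reverse-phase LC/MS peak data. Samples: 1200 compounds at 20 nM each with 20 μM Bcl-2, 1 h at 23 °C in the dark, then P-2 SEC and organic-solvent extraction; references lacked protein, with and without SEC.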

Setting [1] is: AS-MS, Example 4 mixture library, Bcl-2, replicate n = 1.
Where [2] appears, read: AS-MS, Example 4 mixture library, Bcl-2, replicate n = 2.
Where [3] appears, read: replicate n = 1, mixture library, value belongs to the MS peak assigned to the compound.
[4] abbreviates: replicate n = 2, mixture library, value belongs to the MS peak assigned to the compound.

T1 sequence (P10415 whole entry): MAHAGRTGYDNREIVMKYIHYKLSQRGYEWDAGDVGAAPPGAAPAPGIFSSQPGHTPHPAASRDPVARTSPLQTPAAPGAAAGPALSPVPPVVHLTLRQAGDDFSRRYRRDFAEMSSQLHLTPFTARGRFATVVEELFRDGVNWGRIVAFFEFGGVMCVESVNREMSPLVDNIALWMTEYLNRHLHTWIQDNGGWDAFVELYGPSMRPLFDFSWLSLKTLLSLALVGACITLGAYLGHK

Take `CCOc1cncc(-c2cnn(-c3cc(C(=O)N4CCN(c5ccc(C(=O)NS(=O)(=O)c6ccc(NCCSc7ccccc7)c(C(F)(F)F)c6)nn5)CC4)cc(C(F)(F)F)c3)c2)c1` [Compound B2R022-01, 6-[4-[3-[4-(5-Ethoxypyridin-3-yl)pyrazol-1-yl]-5-(trifluoromethyl)benzoyl]piperazin-1-yl]-N-[4-(2-phenylsulfanylethylamino)-3-(trifluoromethyl)phenyl]sulfonylpyridazine-3-carboxamide]: under setting [1], the “ASMS ratio (%) n = 1” value stood at 14.5%. Also, the “ASMS ratio (%) n = 2” value under setting [2] is recorded as 15.8%.

As to `CCOc1cncc(C#Cc2cc(C(=O)N3CCN(c4ccc(C(=O)NS(C)(=O)=O)cc4)CC3)cc(C(F)(F)F)c2)c1` [Compound B2I042-01, 4-[4-[3-[2-(5-Ethoxypyridin-3-yl)ethynyl]-5-(trifluoromethyl)benzoyl]piperazin-1-yl]-N-methylsulfonylbenzamide], under setting [3], the “ASMS ratio (%) n = 1” value is reported as 0.0%. Moreover, the “ASMS ratio (%) n = 2” value under setting [4] came to 0.0%.

`CCOc1cccc(-c2cc(CN3CCN(c4ccc(C(=O)NS(=O)(=O)CC56CC7CC(CC(C7)C5)C6)nn4)CC3)cc(OC(F)(F)F)c2)c1` [Compound B2A089-01]: the “ASMS ratio (%) n = 1” value under setting [3] was 10.5%. The “ASMS ratio (%) n = 2” value under setting [4] is 0.5%.

For `CCOc1cccc(-c2ccc(CN3CCN(c4ccc(C(=O)NS(=O)(=O)C(C)(C)C)nn4)CC3)c(OC)c2)c1` [Compound B2L079-01], under setting [3], the “ASMS ratio (%) n = 1” value came out at 0.0%. Further, the “ASMS ratio (%) n = 2” value under setting [4] is listed as 0.0%.

On to `CCOc1cccc(-c2ccc(C(=O)N3CCN(c4ccc(C(=O)NS(=O)(=O)C(C)(C)C)cc4)CC3)cc2F)c1` [Compound B2L027-01, N-tert-Butylsulfonyl-4-[4-[4-(3-ethoxyphenyl)-3-fluorobenzoyl]piperazin-1-yl]benzamide], for which the “ASMS ratio (%) n = 1” value under setting [3] worked out at 0.0%. Further, under setting [4], the “ASMS ratio (%) n = 2” value stood at 0.0%.

As for `CCOc1cccc(-c2ccc(CN3CCN(c4ccc(C(=O)NS(C)(=O)=O)cc4)CC3)cc2F)c1` [Compound B2I051-01, 4-[4-[[4-(3-Ethoxyphenyl)-3-fluorophenyl]methyl]piperazin-1-yl]-N-methylsulfonylbenzamide], under setting [3], the “ASMS ratio (%) n = 1” value is listed as 0.0%. For the same molecule, under setting [4], the “ASMS ratio (%) n = 2” value stood at 0.0%.

For the molecule `CCOc1cncc(-c2cc(C(=O)N3CCN(c4ccc(C(=O)NS(=O)(=O)CCC(F)(F)F)nn4)CC3)cc(C(C)(C)C)c2)c1` [Compound B2N016-01, 6-[4-[3-tert-Butyl-5-(5-ethoxypyridin-3-yl)benzoyl]piperazin-1-yl]-N-(3,3,3-trifluoropropylsulfonyl)pyridazine-3-carboxamide], the “ASMS ratio (%) n = 1” value under setting [1] is given as 0.0%. In addition, the “ASMS ratio (%) n = 2” value under setting [2] came out at 0.0%.

As to `CCOc1cccc(C#Cc2cncc(C(=O)N3CCN(c4ccc(C(=O)NS(=O)(=O)C(C)(C)C)nn4)CC3)c2)c1` [Compound B2L009-01, N-tert-Butylsulfonyl-6-[4-[5-[2-(3-ethoxyphenyl)ethynyl]pyridine-3-carbonyl]piperazin-1-yl]pyridazine-3-carboxamide], the “ASMS ratio (%) n = 1” value under setting [3] was determined as 0.0%. The “ASMS ratio (%) n = 2” value under setting [4] is given as 0.0%.

Turning to `CCOc1cccc(C#Cc2ccccc2C(=O)N2CCN(c3ccc(C(=O)NS(=O)(=O)c4ccc(NCCSc5ccccc5)c(C(F)(F)F)c4)nn3)CC2)c1` [Compound B2R007-01, 6-[4-[2-[2-(3-Ethoxyphenyl)ethynyl]benzoyl]piperazin-1-yl]-N-[4-(2-phenylsulfanylethylamino)-3-(trifluoromethyl)phenyl]sulfonylpyridazine-3-carboxamide], the “ASMS ratio (%) n = 1” value under setting [1] was 0.0%.

In the case of `CCOc1cncc(-c2ccc(CN3CCN(c4ccc(C(=O)NS(C)(=O)=O)cc4)CC3)c(OC)c2)c1` [Compound B2I054-01, 4-[4-[[4-(5-Ethoxypyridin-3-yl)-2-methoxyphenyl]methyl]piperazin-1-yl]-N-methylsulfonylbenzamide], under setting [3], the “ASMS ratio (%) n = 1” value is 0.0%. For the same molecule, the “ASMS ratio (%) n = 2” value under setting [4] was 0.0%.

Turning to `CCOc1cncc(C#Cc2ccccc2C(=O)N2CCN(c3ccc(C(=O)NS(=O)(=O)CCC(F)(F)F)cc3)CC2)c1` [Compound B2N030-01, 4-[4-[2-[2-(5-Ethoxypyridin-3-yl)ethynyl]benzoyl]piperazin-1-yl]-N-(3,3,3-trifluoropropylsulfonyl)benzamide], the “ASMS ratio (%) n = 1” value under setting [1] came out at 0.0%. Moreover, the “ASMS ratio (%) n = 2” value under setting [2] is 0.0%.

As for `CCOc1cccc(-c2cc(OC)c(CN3CCN(c4ccc(C(=O)NS(=O)(=O)CCC(F)(F)F)cc4)CC3)c(OC)c2)c1` [Compound B2N059-01, 4-[4-[[4-(3-Ethoxyphenyl)-2,6-dimethoxyphenyl]methyl]piperazin-1-yl]-N-(3,3,3-trifluoropropylsulfonyl)benzamide], the “ASMS ratio (%) n = 1” value under setting [1] was 0.0%. For the same molecule, the “ASMS ratio (%) n = 2” value under setting [2] came out at 0.0%.

`CCOc1cncc(-c2ccc(CN3CCN(c4ccc(C(=O)NS(=O)(=O)c5ccc(NCCSc6ccccc6)c(C(F)(F)F)c5)nn4)CC3)cc2C)c1` [Compound B2R074-01, 6-[4-[[4-(5-ethoxypyridin-3-yl)-3-methylphenyl]methyl]piperazin-1-yl]-N-[4-(2-phenylsulfanylethylamino)-3-(trifluoromethyl)phenyl]sulfonylpyridazine-3-carboxamide]: the “ASMS ratio (%) n = 1” value under setting [1] is 22.4%. Moreover, under setting [2], the “ASMS ratio (%) n = 2” value was 25. %.

`CCOc1cncc(-c2ccc(CN3CCN(c4ccc(C(=O)NS(C)(=O)=O)cc4)CC3)c3ccccc23)c1` [Compound B2I066-01, 4-[4-[[4-(5-Ethoxypyridin-3-yl)naphthalen-1-yl]methyl]piperazin-1-yl]-N-methylsulfonylbenzamide]: the “ASMS ratio (%) n = 1” value under setting [3] turned out to be 0.0%. The “ASMS ratio (%) n = 2” value under setting [4] is on record as 0.0%.

Regarding `CCOc1cccc(-c2cnn(-c3cc(C(=O)N4CCN(c5ccc(C(=O)NS(=O)(=O)CCC(F)(F)F)cc5)CC4)cc(C(F)(F)F)c3)c2)c1` [Compound B2N043-01, 4-[4-[3-[4-(3-Ethoxyphenyl)pyrazol-1-yl]-5-(trifluoromethyl)benzoyl]piperazin-1-yl]-N-(3,3,3-trifluoropropylsulfonyl)benzamide], the “ASMS ratio (%) n = 1” value under setting [1] is −1.4%. Also, under setting [2], the “ASMS ratio (%) n = 2” value was found to be 0.1%.

For `CCOc1cccc(-c2cc(C(=O)N3CCN(c4ccc(C(=O)NS(=O)(=O)c5ccc(NCCSc6ccccc6)c(C(F)(F)F)c5)nn4)CC3)cc(C(C)(C)C)c2)c1` [Compound B2R015-01, 6-[4-[3-tert-Butyl-5-(3-ethoxyphenyl)benzoyl]piperazin-1-yl]-N-[4-(2-phenylsulfanylethylamino)-3-(trifluoromethyl)phenyl]sulfonylpyridazine-3-carboxamide], the “ASMS ratio (%) n = 1” value under setting [1] was 9.7%. The “ASMS ratio (%) n = 2” value under setting [2] came out at 0.0%.

`CCOc1cncc(-c2ccc(CN3CCN(c4ccc(C(=O)NS(=O)(=O)CCC(F)(F)F)cc4)CC3)cc2F)c1` [Compound B2N052-01]: the “ASMS ratio (%) n = 1” value under setting [1] was 0.0%. Besides, under setting [2], the “ASMS ratio (%) n = 2” value was −0.5%.

`CCOc1cccc(-c2cnn(-c3cc(C(=O)N4CCN(c5ccc(C(=O)NS(=O)(=O)C(C)(C)C)nn5)CC4)cc(C(F)(F)F)c3)c2)c1` [Compound B2L021-01, N-tert-Butylsulfonyl-6-[4-[3-[4-(3-ethoxyphenyl)pyrazol-1-yl]-5-(trifluoromethyl)benzoyl]piperazin-1-yl]pyridazine-3-carboxamide]: the “ASMS ratio (%) n = 1” value under setting [3] is 0.0%. Further, the “ASMS ratio (%) n = 2” value under setting [4] is reported as −14.9%.

With `CCOc1cccc(-c2ccc(C(C)N3CCN(c4ccc(C(=O)NS(=O)(=O)C(C)(C)C)cc4)CC3)cc2)c1` (centres unmarked) [Compound B2L097-01, N-tert-Butylsulfonyl-4-[4-[1-[4-(3-ethoxyphenyl)phenyl]ethyl]piperazin-1-yl]benzamide], the “ASMS ratio (%) n = 1” value under setting [1] is on record as 0.0%. In addition, the “ASMS ratio (%) n = 2” value under setting [2] amounted to 0.0%.

For the molecule `CCOc1cccc(-c2ccc(C(=O)N3CCN(c4ccc(C(=O)NS(=O)(=O)CCC(F)(F)F)cc4)CC3)c3ccccc23)c1` [Compound B2N035-01, 4-[4-[4-(3-Ethoxyphenyl)naphthalene-1-carbonyl]piperazin-1-yl]-N-(3,3,3-trifluoropropylsulfonyl)benzamide], the “ASMS ratio (%) n = 1” value under setting [1] came out at 0.0%. Moreover, the “ASMS ratio (%) n = 2” value under setting [2] is on record as 0.0%.

As to `CCOc1cccc(-c2cc(C(=O)N3CCN(c4ccc(C(=O)NS(C)(=O)=O)cc4)CC3)cc(C(F)(F)F)c2)c1` [Compound B2I039-01, 4-[4-[3-(3-Ethoxyphenyl)-5-(trifluoromethyl)benzoyl]piperazin-1-yl]-N-methylsulfonylbenzamide], the “ASMS ratio (%) n = 1” value under setting [3] turned out to be 0.0%. For the same molecule, the “ASMS ratio (%) n = 2” value under setting [4] is on record as 0.0%.

On to `CCOc1cccc(-c2ccc(CN3CCN(c4ccc(C(=O)NS(=O)(=O)CCC(F)(F)F)nn4)CC3)c(OC)c2)c1` [Compound B2N079-01, 6-[4-[[4-(3-Ethoxyphenyl)-2-methoxyphenyl]methyl]piperazin-1-yl]-N-(3,3,3-trifluoropropylsulfonyl)pyridazine-3-carboxamide], for which, under setting [1], the “ASMS ratio (%) n = 1” value was 0.0%. Moreover, the “ASMS ratio (%) n = 2” value under setting [2] was found to be 0.0%.

`CCOc1cncc(-c2ccccc2CCC(=O)N2CCN(c3ccc(C(=O)NS(=O)(=O)C(C)(C)C)cc3)CC2)c1` [Compound B2L034-01, N-tert-Butylsulfonyl-4-[4-[3-[2-(5-ethoxypyridin-3-yl)phenyl]propanoyl]piperazin-1-yl]benzamide]: under setting [3], the “ASMS ratio (%) n = 1” value turned out to be 1.6%. For the same molecule, the “ASMS ratio (%) n = 2” value under setting [4] is 3.5%.

Take `CCOc1cccc(-c2ccc(CN3CCN(c4ccc(C(=O)NS(C)(=O)=O)nn4)CC3)cc2F)c1` [Compound B2I077-01, 6-[4-[[4-(3-Ethoxyphenyl)-3-fluorophenyl]methyl]piperazin-1-yl]-N-methylsulfonylpyridazine-3-carboxamide]: under setting [3], the “ASMS ratio (%) n = 1” value was determined as 0.0%. For the same molecule, the “ASMS ratio (%) n = 2” value under setting [4] is given as 0.0%.
